Experimental data as given in US7557137B2, “Gamma-lactams as beta-secretase inhibitors” (Bristol-Myers Squibb Company, priority 2002, dated 2009).

target: T1, BACE enzyme (Homo sapiens, UniProt P56817); assay: BACE enzyme inhibition, fluorescence-quenched peptide substrate MCA-EVNLDAEFK(DNP); format: biochemical; details: 50 mM acetate, pH 4.5, 0.25 mg/ml bovine serum albumin, 2.5% DMSO; read-out: Activity Rating (based on IC50 values)
T1 construct: the catalytic domain, appended by a C-terminal poly-histidine tag, is secreted out into the cellular medium; made in house; host or cells: Drosophila melanogaster S2 cells
T1 sequence (P56817 75-416 limits assumed): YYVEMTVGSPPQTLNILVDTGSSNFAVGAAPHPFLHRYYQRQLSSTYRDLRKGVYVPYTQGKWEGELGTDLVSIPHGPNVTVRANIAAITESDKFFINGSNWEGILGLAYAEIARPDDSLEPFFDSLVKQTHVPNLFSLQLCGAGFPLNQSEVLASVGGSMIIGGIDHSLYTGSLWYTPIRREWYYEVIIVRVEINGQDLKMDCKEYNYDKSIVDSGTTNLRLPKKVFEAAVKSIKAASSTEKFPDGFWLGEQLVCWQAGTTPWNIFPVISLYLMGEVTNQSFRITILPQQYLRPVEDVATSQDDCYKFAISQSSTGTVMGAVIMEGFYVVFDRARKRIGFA
Excerpt: There are a number of methods by which inhibitors of the BACE enzyme can be identified experimentally. The enzyme can be obtained from membrane samples from natural tissues or cultured cells or can be expressed recombinantly in a host cell by well known methods of molecular biology. […] The enzymatic activity and/or ligand binding capability of the enzyme can be assessed within these membrane samples, or the enzyme can be purified to varying extents. As an illustrative example, the nucleic acid sequence encoding the pro and catalytic domains of human BACE can be appended on the 5′ end with an untranslated and signal sequence from the gene for acetylcholinesterase, and on the 3′ end with a sequence encoding a poly-histidine tag. This cDNA can then be expressed in Drosophila melanogaster S2 cells in which the signal and pro sequences of the transcribed/translated protein are removed by cellular proteases and the catalytic domain, appended by a C-terminal poly-histidine tag, is secreted out into the cellular medium. The enzyme can then be purified from the culture medium by nickel affinity chromatography by methods well known to those trained in the art [Mallender, W. et al., (2001) “Characterization of recombinant, soluble beta-secretase from an insect cell expression system.” Mol. Pharmacol. 59: 619-626]. Similar strategies for expressing and purifying various forms of BACE in bacterial, mammalian and other cell types would be known to one skilled in the art.
The enzyme thus obtained can be put in contact with a test compound and with an appropriate substrate on which enzyme-mediated peptide bond hydrolysis is known to occur. The ability of the test compound to diminish the rate of substrate hydrolysis can then be quantified as a measure of inhibition potency. Appropriate substrates can be prepared as peptides, proteins, or chemically modified versions of peptides or proteins, that contain an amino acid sequence that is recognized as a substrate by the enzyme. For example, the amino acid sequence immediately proximal to the beta-cleavage site within Swedish mutant APP is known to be recognized as a substrate for BACE. […] Longer peptide and protein substrates can also be designed by extending the amino acid composition on the N-terminal, the C-terminal, or both ends.
In one known application of (SEQ. ID. NO.:1), X is a 7-methoxycoumarin-4-acetyl (MCA) group and Y is a dinitrophenyl (DNP) group [Marcinkeviciene, J. et al., (2001) “Mechanism of inhibition of beta-site amyloid precursor protein-cleaving enzyme (BACE) by a statine-based peptide.” J. Biol. Chem. 276: 23790-23794]. When this peptide is intact, the natural fluorescence of the MCA group is quenched by its proximity to the DNP group. […] The increase in fluorescence intensity that accompanies enzyme-mediated peptide hydrolysis can be measured as a function of time to quantify the velocity of enzyme catalysis. In a typical assay system the BACE enzyme is diluted into a buffer system composed of 50 mM acetate, pH 4.5 containing 0.25 mg/ml bovine serum albumin. To this is added neat dimethyl sulfoxide (DMSO) or a stock solution of test compound dissolved in DMSO so that the final amount of DMSO in all assays is held constant at 2.5% (v:v). The enzymatic reaction is then initiated by addition of a stock solution of the substrate peptide to a known concentration. The fluorescence increase with time after substrate addition is monitored with an appropriate fluorescence detection instrument, such as a microplate reader or spectrofluorometer. The slope of the signal vs. time plot (progress curve) for samples to which only DMSO was added is taken as a measure of the uninhibited velocity and represents 100% enzymatic activity.

| Compound | IC50 |
| --- | --- |
| CCC(C)[C@@]1(NC(=O)OC)CCN([C@@H](CCc2ccccc2)C(=O)N[C@@H](Cc2ccccc2)[C@@H](O)CNCc2cccc(OC)c2)C1=O (single isomer, unassigned) [Example 15] | 1 to 50 µM |
| CCC(C)[C@@]1(NC(=O)OC)CCN([C@@H](CCc2ccccc2)C(=O)N[C@@H](Cc2ccccc2)[C@H](O)CNCc2cccc(OC)c2)C1=O (single isomer, unassigned) [Example 16] | < 0.1 µM |
| CC(=O)N[C@]1(CC(C)C)CCN([C@@H](CCc2ccccc2)C(=O)N[C@@H](Cc2ccccc2)[C@H](O)CNCCC#N)C1=O [Example 37, 2-(3(S)-Acetylamino-3(S)-isobutyl-2-oxo-pyrrolidin-1-yl)-N-[(1S,2R)-1-benzyl-3-(2-cyano-ethylamino)-2-hydroxy-propyl]-4-phenyl-butyramide] | < 0.1 µM |
| CCC(=O)N[C@]1([C@@H](C)CC)CCN([C@@H](CCc2ccccc2)C(=O)N[C@@H](CC(C)C)[C@H](O)CNCc2cccc(OC)c2)C1=O [Example 4, 2(S)-(3(S)-((S)-sec-butyl)-2-oxo-3-propionylamino-pyrrolidin-1-yl)-N—(S)-{1(R)-[1-hydroxy-2-(3-methoxy-benzylamino)-ethyl]-3-methyl-butyl}-4-phenyl-butyramide] | 0.1 to 1 µM |
| COc1cccc(CNC[C@@H](O)[C@H](Cc2ccccc2)NC(=O)[C@H](CCc2ccccc2)N2CC[C@@](CC3CC3)(NC(C)=O)C2=O)c1 [Example 6, (2S)-2-(3(R)-Acetylamino-3(-cyclopropylmethyl)-2-oxo-pyrrolidin-1-yl)-N-[(1S,2R)-1-benzyl-2-hydroxy-3-(3-methoxy-benzylamino)-propyl]-4-phenyl-butyramide] | 1 to 50 µM |
| CCOC(=O)N[C@]1(C(C)CC)CCN([C@@H](CCc2ccccc2)C(=O)N[C@@H](Cc2ccccc2)[C@H](O)CNCc2cccc(OC)c2)C1=O (single isomer, unassigned) [Example 14] | < 0.1 µM |
| CC[C@H](C)[C@@]1(NC(C)=O)CCN([C@@H](CCc2ccccc2)C(=O)N[C@@H](Cc2cc(F)cc(F)c2)[C@H](O)CNCc2cccc(OC)c2)C1=O [Example 2, (2S)-2-(3(S)-Acetylamino-3-((S)-sec-butyl)-2-oxo-pyrrolidin-1-yl)-N-[(1S,2R)-1-(3,5-difluoro-benzyl)-2-hydroxy-3-(3-methoxy-benzylamino)-propyl]-4-phenyl-butyramide] | < 0.1 µM |
| CC[C@H](C)[C@@]1(NC(=O)CCc2cnc[nH]2)CCN([C@@H](CCc2ccccc2)C(=O)N[C@@H](Cc2ccccc2)[C@H](O)CNCc2cccc(OC)c2)C1=O [Example 20, (2S)-2-(3(S)-(3-3H-imidazol-4-yl-propionylamino)-3-((S)-sec-butyl)-2-oxo-pyrrolidin-1-yl)-N-[(1S,2R)-1-benzyl-2-hydroxy-3-(3-methoxy-benzylamino)-propyl]-4-phenyl-butyramide] | 0.1 to 1 µM |
| CC[C@H](C)[C@@]1(NC(C)=O)CCN([C@@H](CCc2ccccc2)C(=O)N[C@@H](Cc2ccccc2)[C@H](O)CNCc2cc(F)cc(F)c2)C1=O [Example 33, (2S)-2-(3(S)-acetylamino-3-((S)-sec-butyl)-2-oxo-pyrrolidin-1-yl)-N-[(1S,2R)-1-benzyl-2-hydroxy-3-(3,5-difluorobenzylamino)-propyl]-4-phenyl-butyramide] | < 0.1 µM |
| COc1cccc(CNC[C@@H](O)[C@H](Cc2ccccc2)NC(=O)[C@H](CCc2ccccc2)N2CCC(CC(C)C)(NC(C)=O)C2=O)c1 (stereo in doubt) [Example 28, (2S)-2-(3(S)-acetylamino-3-(isobutyl)-2-oxo-pyrrolidin-1-yl)-N-[(1S,2R)-1-benzyl-2-hydroxy-3-(3-methoxy-benzylamino)-propyl]-4-phenyl-butyramide] | < 0.1 µM |
| CCC(C)[C@@]1(NC(=O)CN)CCN([C@@H](CCc2ccccc2)C(=O)N[C@@H](Cc2ccccc2)[C@@H](O)CNCc2cccc(OC)c2)C1=O (single isomer, unassigned) [Example 23] | 1 to 50 µM |
| CCC(C)[C@@]1(NC(=O)CCc2cnc[nH]2)CCN([C@@H](CCc2ccccc2)C(=O)N[C@@H](Cc2ccccc2)[C@@H](O)CNCc2cccc(OC)c2)C1=O (single isomer, unassigned) [Example 21] | 0.1 to 1 µM |
| COc1cccc(CNC[C@@H](O)[C@H](Cc2ccccc2)NC(=O)[C@H](CCc2ccccc2)N2CC[C@](CC3CC3)(NC(C)=O)C2=O)c1 [Example 7, (2S)-2-(3(S)-Acetylamino-3(-cyclopropylmethyl)-2-oxo-pyrrolidin-1-yl)-N-[(1S,2R)-1-benzyl-2-hydroxy-3-(3-methoxy-benzylamino)-propyl]-4-phenyl-butyramide] | < 0.1 µM |
| CCC(C)[C@@]1(NC(=O)CN)CCN([C@@H](CCc2ccccc2)C(=O)N[C@@H](Cc2ccccc2)[C@H](O)CNCc2cccc(OC)c2)C1=O (single isomer, unassigned) [Example 22] | 0.1 to 1 µM |
| CCCNC(=O)N[C@]1([C@@H](C)CC)CCN([C@@H](CCc2ccccc2)C(=O)N[C@@H](Cc2ccccc2)[C@H](O)CNCc2cccc(OC)c2)C1=O [Example 17, (2S)-2-(3(S)-propylureido-3-((S)-sec-butyl)-2-oxo-pyrrolidin-1-yl)-N-[(1S,2R)-1-benzyl-2-hydroxy-3-(3-methoxy-benzylamino)-propyl]-4-phenyl-butyramide] | 0.1 to 1 µM |
| COc1cccc(CNC[C@@H](O)[C@H](Cc2cc(F)cc(F)c2)NC(=O)[C@H](CCc2ccc3c(c2)OCO3)N2CC[C@@](CC3CC3)(NC(C)=O)C2=O)c1 [Example 39] | < 0.1 µM |
| CC[C@H](C)[C@@]1(NC(=O)CCCO)CCN([C@@H](CCc2ccccc2)C(=O)N[C@@H](Cc2ccccc2)[C@H](O)CNCc2cccc(OC)c2)C1=O [Example 25, (2S)-2-(3(S)-(4-hydroxybutyrylamino)-3-((S)-sec-butyl)-2-oxo-pyrrolidin-1-yl)-N-[(1S,2R)-1-benzyl-2-hydroxy-3-(3-methoxy-benzylamino)-propyl]-4-phenyl-butyramide] | < 0.1 µM |
| CC[C@H](C)[C@@]1(NC(C)=O)CCN([C@@H](CCc2ccccc2)C(=O)N[C@@H](Cc2ccccc2F)[C@H](O)CNCc2cccc(Cl)c2)C1=O [Example 12, (2S)-2-(3(S)-acetylamino-3-((S)-sec-butyl)-2-oxo-pyrrolidin-1-yl)-N-[(1S,2R)-1-(2-fluorobenzyl)-2-hydroxy-3-(3-chloro-benzylamino)-propyl]-4-phenyl-butyramide] | 0.1 to 1 µM |
| COc1cccc(CC[C@@H](C(=O)N[C@@H](Cc2cc(F)cc(F)c2)[C@H](O)CNCc2cccc(OC)c2)N2CCC(CC3CC3)(NC(C)=O)C2=O)c1 (stereo in doubt) [Example 42, (2S)-2-(3(S)-acetylamino-3-(cyclopropylmethyl)-2-oxo-pyrrolidin-1-yl)-N-[(1S,2R)-1-(3,5-difluorobenzyl)-2-hydroxy-3-(3-methoxybenzylamino)-propyl]-4-(3-methoxyphenyl)-butyramide] | < 0.1 µM |
| CC[C@H](C)[C@@]1(NC(C)=O)CCN([C@@H](CCc2ccccc2)C(=O)N[C@@H](Cc2ccccc2)[C@H](O)CNCc2cccc(Cl)c2)C1=O [Example 29, (2S)-2-(3(S)-acetylamino-3-((S)-sec-butyl)-2-oxo-pyrrolidin-1-yl)-N-[(1S,2R)-1-benzyl-2-hydroxy-3-(3-chloro-benzylamino)-propyl]-4-phenyl-butyramide] | < 0.1 µM |
| CCNC(=O)N[C@]1([C@@H](C)CC)CCN([C@@H](CCc2ccccc2)C(=O)N[C@@H](Cc2ccccc2)[C@H](O)CNCc2cccc(OC)c2)C1=O [Example 18, (2S)-2-(3(S)-ethylureido-3-((S)-sec-butyl)-2-oxo-pyrrolidin-1-yl)-N-[(1S,2R)-1-benzyl-2-hydroxy-3-(3-methoxy-benzylamino)-propyl]-4-phenyl-butyramide] | < 0.1 µM |
